Data from patent US12371453B2, “Polypeptide having antibacterial activity, composition for preventing or treating sepsis comprising same, and antibacterial composition” (priority 2019, dated 2025).
Converted amounts (≈) assume the structure as drawn. Square brackets hold non-standard residues; d marks the D form. Ends that are not written are not given here. Peptide text beside a SMILES is read from it.

What was measured:
[1] = LPS binding affinity by Isothermal Titration Calorimeter (ITC); parameters: species or system E. coli K1; conditions: for LPS binding affinity (in words): compared with FP1 (wild type, WT); for Kd: peptide binding to LPS, read-out: Kd (calculated by ITC)
Text: FPT (ADK 44-54) is denoted by wild type (WT), and peptides in which a point mutation occurred at various sites in WT were manufactured (FP3, FP5, FP6, and FP9). To increase the interaction with LPS in a residue sequence of FP3, peptides were designed based on FP3- and LPS-binding models (FP12-NH2 and FP13-NH2), and peptides were designed by additionally introducing a non-natural amino acid and an amino acid isomer (allomeric D-type amino acid) (allD FP12-NH2, allD FP13-NH2, allD FP-13-9a, allD FP-13-9w, allD FP-13-9k, and allD FP13-NH2 (AcOH)). In addition, an N-terminus PEGylated peptide (PEG-alld FP13-NH2 (AcOH)) was additionally designed, synthesized, and provided by ANYGEN, Co. Ltd. The binding affinity between each of the provided peptides and lipopolysaccharide (LPS) was confirmed through measuring the binding affinity (Kd) using Isothermal Titration Calorimeter (ITC).
Specifically, a method of analyzing binding affinity (Kd) between a peptide and LPS is as follows.
Measurement was carried out using a Malvern MicroCal PEAQ-ITC cell instrument, and the following pretreatment was carried out to confirm interaction with LPS. The amount and morphology of a sample cell are 300 μL and coin-shaped, fixed-in-place, respectively; a syringe rotation rate was 1,200 rpm; and a temperature was 30° C., 35° C. or 25° C.
Before the experiment, LPS and the peptide were previously diluted with PBS, thereby preparing 2 mM LPS and 0.2 mM peptide. 300 μL of the peptide was added into cells in the ITC instrument, which had been washed, and 40 μL of LPS was put into a syringe. After measurement conditions for ITC (temperature, number of injections) were set, the syringe was inserted into the cell, and ITC measurement was started. When the measurement was completed, analysis is performed, and the Kd values of LPS and the peptide were calculated.

CR-Klebsiella pneumoniae = conditions: CR-
Experimental: (§1) The antibacterial activity was evaluated according to an antibacterial activity test method for measuring the minimum inhibitory concentration 50 (MIC50; the minimal concentration that kills 50% of bacteria).
(§2) More specifically, 100 μL of a medium was dispensed into each well of a 96-well plate, and in the first column, an antibiotic and a peptide in 200 μL of the medium were dispensed. 1/2 serial dilution was performed from columns 1 to 11 and five types of antibiotic-resistant bacteria (ESBL-resistant E. coli, carbapenem-resistant A. baumannii, carbapenem-resistant Klebsiella pneumoniae, carbapenem-resistant Pseudomonas aeruginosa, colistin-resistant Acinetobactor baumannii), which had been previously cultured, were diluted (OD600 nm value in dilution: approximately 0.0025) and dispensed into each well. The plate was incubated in a 37° C. incubator for 4 hours, and measured at OD600 nm.

[2] = system: Colistin resistant AB (Acinetobactor baumannii)
Experimental: as §1, §2

ESBL (E. coli) = conditions: ESBL
Experimental: as §1, §2

[3] = system: Carbapenem resistant (CR)-Acinetobactor baumannii; experiment: organism not typed
Experimental: as §1, §2

E. coli = format: cell-based
A. baumannii = format: cell-based
[4] = Calcein dye leakage from liposome mimicking gram-negative bacterial cell membrane; format: biochemical; conditions: calcein-encapsulated liposome
Experimental: (§3) To study an action mechanism for FP12-NH2, FP13-NH2, allD FP12-NH2, and allD FP13-NH2 peptides, the disruption ability of the peptides against liposomes mimicking a bacterial cell membrane and a red blood cell membrane was measured.
(§4) EYPG is an abbreviation for egg yolk L-α-phosphatidyl-DL-glycerol, and EYPC is an abbreviation for egg yolk 1,2-diacyl-sn-glycero-3-phosphocholine. CH is an abbreviation for cholesterol. After dissolving the phospholipids composed according to the content of each component in chloroform, the chloroform was removed using a rotary evaporator, and lyophilization was performed overnight. Afterward, the dried lipid film was dissolved in a Tris-buffer solution, and calcein […]. After repeated freezing and thawing, the calcein-encapsulated liposome was manufactured using an extruder. Subsequently, after an excitation wavelength of a spectrofluorimeter (Shimadzu RF 5301 PC spectrofluorimeter, Japan) was set to 490 nm, and an emission wavelength was set to 520 nm, the peptide was administered to the liposome to measure relative dye leakage, provided that a 100% dye leakage was expressed as fluorescence intensity when 0.010% Triton-X100 was added.
(§5) The upper graphs of FIG. 3 show the % dye leakage for an EYPC/EYPG (7:3, w/w) liposome mimicking bacterial cells, encapsulating a fluorescent dye, calcein, by a peptide according to a peptide concentration. […] The lower graphs of FIG. 3 show the % dye leakage for an EYPC/CH (10:1, w/w) liposome, which is […] mimicking a human red blood, encapsulating a fluorescent dye, calcein, by a peptide according to a peptide concentration.

[5] = Calcein dye leakage from liposome mimicking human red blood cell membrane; format: biochemical; conditions: calcein-encapsulated liposome
Experimental: as §3, §4, §5

[6] = Calcein dye leakage from liposome mimicking gram-positive bacterial cell membrane; format: biochemical; conditions: calcein-encapsulated liposome
Experimental: To study the action mechanisms for FPT2-NH2, FPT3-NH2, allD FPT2-NH2, and allD FP13-NH2 peptides, the disruption ability of the peptides against a liposome mimicking a bacterial cell membrane was measured.

[7] = system: trypsin, protease K, and chymotrypsin; conditions: read out by antibacterial activity
[8] = In vivo toxicity, survival rate (Example 9); parameters: species or system ICR mice; conditions: mouse, ip, mice, intraperitoneal six times, survival for 72 hours
Experimental: To confirm the therapeutic and pharmaceutical effects of an acetate salt substitution of allD FP13-NH2, a septic animal model induced by intraperitoneally administering each of the Escherichia coli (standard strain and ESBL) strains or a normal mouse was treated with the peptide allD FP13-NH2 (AcOH). The antibiotic effect, the toxicity, and the inhibitory activity of […] cytokine IL-6 of the salt substitution with those of the same peptide at the end of trifluoroacetic acid (TFA) were compared.
Six-week-old female ICR mice (SPF mice, Samtako) with an average body weight of 25 g were used as experimental animals. The experimental animals were provided with sterile feed and water and bred with less than 10 mice per cage, and a day/night cycle was 12 hours.
To evaluate in vivo toxicity, the mice were divided into groups (n=5 or 6 per group) per experiment, and intraperitoneally treated six times with allD FP13-NH2 (TFA) and allD FP13-NH2 (AcOH) mixed with […]'S DEX solution (vehicle) at 0, 1, 2, 3, 4, or 5 hours, followed by observing a survival rate at intervals of 12 hours for 72 hours.

## CC(C)C[C@@H](NC(=O)[C@H](N)CCCNC(=N)N)C(=O)N[C@H](CCCNC(=N)N)C(=O)N[C@@H](C(=O)N[C@H](CCCCN)C(=O)N[C@H](CC(C)C)C(=O)N[C@H](CCCNC(=N)N)C(=O)N[C@H](CCCNC(=N)N)C(=O)N[C@H](Cc1ccc(O)cc1)C(=O)N[C@H](CC(C)C)C(=O)N[C@H](CCCNC(=N)N)C(N)=O)C(C)C [allD FP12-NH2] (H-[dR][dL][dR][dV][dK][dL][dR][dR][dY][dL][dR]-NH2; N-terminus assumed)
[1]
  LPS binding affinity (in words): strong LPS binding affinity
  Kd: 26.6 µM
CR-Klebsiella pneumoniae
  MIC50, CR-Klebsiella pneumoniae: <32 µg/mL
[2]
  MIC50, Colistin resistant AB: <16 µg/mL
ESBL (E. coli)
  MIC50, ESBL (E. coli): <0.5 µg/mL
[3]
  MIC50, Carbapenem resistant (CR)-Acinetobactor baumannii: <4 µg/mL
E. coli
  MIC50: 2 µM (≈ 3.06 µg/mL)
  MIC90: 4 µM (≈ 6.11 µg/mL)
A. baumannii
  MIC50: 4 µM (≈ 6.11 µg/mL)
  MIC90: 8 µM (≈ 12.2 µg/mL)
[4]
  dye leakage, PC/PG (7:3, w/w) liposome mimicking a bacteria cell membrane: high dye leakage
[5]
  dye leakage, PC/CH liposome mimicking a red blood cell membrane: almost no dye leakage
[6]
  dye leakage, EYPG/EYPC (6:4, w/w) liposome mimicking gram-positive bacterial cell membrane: high dye leakage
S. aureus
  MIC50: 4 µM (≈ 6.11 µg/mL)
  MIC90: 8 µM (≈ 12.2 µg/mL)
[7]
  resistance to the proteolytic enzyme: much improved resistance

## CC(C)C[C@@H](NC(=O)[C@H](N)CCCCN)C(=O)N[C@H](CCCNC(=N)N)C(=O)N[C@@H](C(=O)N[C@H](CCCCN)C(=O)N[C@H](CC(C)C)C(=O)N[C@H](CCCNC(=N)N)C(=O)N[C@H](CCCNC(=N)N)C(=O)N[C@H](Cc1ccc(O)cc1)C(=O)N[C@H](CC(C)C)C(=O)N[C@H](CCCNC(=N)N)C(N)=O)C(C)C [allD FP13-NH2 (AcOH)] (H-[dK][dL][dR][dV][dK][dL][dR][dR][dY][dL][dR]-NH2; N-terminus assumed)
CR-Klebsiella pneumoniae
  MIC50, CR-Klebsiella pneumoniae: <32 µg/mL
[2]
  MIC50, Colistin resistant AB: <16 µg/mL
ESBL (E. coli)
  MIC50, ESBL (E. coli): <1 µg/mL
[3]
  MIC50, Carbapenem resistant (CR)-Acinetobactor baumannii: <1 µg/mL
[8]
  LD50: 80 mg/kg

## KLRVKLRRYLR-NH2 [FP13-NH2]
[1]
  LPS binding affinity (in words): strong LPS binding affinity
  Kd: 118 µM
CR-Klebsiella pneumoniae
  MIC50, CR-Klebsiella pneumoniae: <16 µg/mL
[2]
  MIC50, Colistin resistant AB: <32 µg/mL
ESBL (E. coli)
  MIC50, ESBL (E. coli): <1 µg/mL
[3]
  MIC50, Carbapenem resistant (CR)-Acinetobactor baumannii: <8 µg/mL
[4]
  dye leakage, PC/PG (7:3, w/w) liposome mimicking a bacteria cell membrane: high dye leakage
[5]
  dye leakage, PC/CH liposome mimicking a red blood cell membrane: almost no dye leakage
[6]
  dye leakage, EYPG/EYPC (6:4, w/w) liposome mimicking gram-positive bacterial cell membrane: high dye leakage

## RLRVKLRRYLR-NH2 [FP12-NH2]
[1]
  LPS binding affinity (in words): strong LPS binding affinity
  Kd: 0.242 µM
CR-Klebsiella pneumoniae
  MIC50, CR-Klebsiella pneumoniae: <8 µg/mL
[2]
  MIC50, Colistin resistant AB: <16 µg/mL
ESBL (E. coli)
  MIC50, ESBL (E. coli): <0.5 µg/mL
[3]
  MIC50, Carbapenem resistant (CR)-Acinetobactor baumannii: <4 µg/mL
[4]
  dye leakage, PC/PG (7:3, w/w) liposome mimicking a bacteria cell membrane: high dye leakage
[5]
  dye leakage, PC/CH liposome mimicking a red blood cell membrane: almost no dye leakage
[6]
  dye leakage, EYPG/EYPC (6:4, w/w) liposome mimicking gram-positive bacterial cell membrane: high dye leakage
